pIC50: −log10 of the molar value.
Tests used:
[1] = system: IL-17A-induced G-CSF production in human normal keratinocyte (NHK); test: NHK Assay: IL-17A-induced G-CSF production in human normal keratinocytes; assay type: cell-based; details: 24 h, adult normal human keratinocytes, IL-17A 5 ng/mL, simple average if tested more than once
In short: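 Inhibition of IL-17A-driven G-CSF release is measured in adult keratinocytes stimulated for 24 h at 37° C with 5 ng/mL human IL-17A that had been pre-incubated with compound for 1 h. IC50 comes from HTRF G-CSF levels; cell viability is checked in parallel by luminescent ATP assay.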

[2] = target: IL-17A(FLAG-Tagged): IL-17RA(His-Tagged) (Homo sapiens, UniProt Q16552, K93Q); test: IL-17A(FLAG-Tagged): IL-17RA(His-Tagged) Binding Disruption Eu-HTRF Assay; details: IL-17A/IL-17RA binding disruption, simple average if tested more than once
UniProt Q16552, sequence (Q16552 with tags, fused parts or gaps K93Q): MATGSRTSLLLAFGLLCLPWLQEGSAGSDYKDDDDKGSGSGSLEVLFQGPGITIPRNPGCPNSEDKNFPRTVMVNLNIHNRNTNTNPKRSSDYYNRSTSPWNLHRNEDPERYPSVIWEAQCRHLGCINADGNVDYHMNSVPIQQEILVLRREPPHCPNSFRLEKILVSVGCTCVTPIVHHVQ
In short: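 IC50 comes from a one-site competition fit of the HTRF 665/620 nm ratio. Compound dilutions (2-fold, 22 points) were held 1 h rt with FLAG-tagged IL-17A dimer, then His-tagged IL-17RA plus Eu-cryptate anti-FLAG and D2 anti-His antibodies were added for 2 h rt.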

| pIC50 [2] | SMILES | pIC50 ([1]; Homo sapiens, Keratinocyte) | pIC50 [1] |
| --- | --- | --- | --- |
| 5.92 | O=C(CCC(F)(F)F)N[C@@H](c1cnn2cc([C@@H](NC(=O)c3cccc(C(F)F)n3)C3CCC(F)(F)CC3)nc2c1)C1CC1 [Example 229, N—((S)-(7-((R)-Cyclopropyl(4,4,4-trifluorobutanamido)methyl)imidazo[1,2-b]pyridazin-2-yl)(4,4-difluorocyclohexyl)methyl)-6-(difluoromethyl)picolinamide] | < 4.70 | – |
| 7.38 | N#CCC(NC(=O)CC1CC(F)(F)C1)c1cnn2cc([C@@H](NC(=O)c3nonc3C3CC3)C3CCC(F)(F)CC3)nc2c1 (single isomer, unassigned) [Example 398, N—((S)-(7-((S*)-2-Cyano-1-(2-(3,3-difluorocyclobutyl)acetamido)ethyl)imidazo[1,2-b]pyridazin-2-yl)(4,4-difluorocyclohexyl)methyl)-4-cyclopropyl-1,2,5-oxadiazole-3-carboxamide] | 7.15 | – |
| 6.85 | Cc1nonc1C(=O)N[C@H](c1cn2ncc([C@H](NC(=O)CC3(C(F)(F)F)CC3)C3CC3)cc2n1)C1CCC(F)(F)CC1 [Example 245, N—((S)-(7-((R)-Cyclopropyl(2-(1-(trifluoromethyl)cyclopropyl)acetamido)methyl)imidazo[1,2-b]pyridazin-2-yl)(4,4-difluorocyclohexyl)methyl)-4-methyl-1,2,5-oxadiazole-3-carboxamide] | 6.54 | – |
| 7.28 | CC(CC(=O)N[C@@H](c1cnn2cc([C@@H](NC(=O)c3nonc3C3CC3)C3CCC(F)(F)CC3)nc2c1)C1CC1)C(F)(F)F (single isomer, unassigned) [Example 301, 4-Cyclopropyl-N—((S)-(7-((R)-cyclopropyl((S*)-4,4,4-trifluoro-3-methylbutanamido)methyl)imidazo[1,2-b]pyridazin-2-yl)(4,4-difluorocyclohexyl)methyl)-1,2,5-oxadiazole-3-carboxamide] | – | 7.25 |

Further lines, the compound ahead of its results:

| SMILES | pIC50 [2] | pIC50 ([1]; Homo sapiens, Keratinocyte) | pIC50 [1] |
| --- | --- | --- | --- |
| Cc1nccnc1C(=O)N[C@H](c1cn2ncc([C@H](NC(=O)CCC(F)(F)F)C3CC3)cc2n1)C1CCC(F)(F)CC1 [Example 219, N—((S)-(7-((R)-Cyclopropyl(4,4,4-trifluorobutanamido)methyl)imidazo[1,2-b]pyridazin-2-yl)(4,4-difluorocyclohexyl)methyl)-3-methylpyrazine-2-carboxamide] | 5.68 | < 4.70 | – |
| O=C(CCC(F)(F)F)NCc1cnn2cc([C@@H](NC(=O)c3ccccc3)C3CCC(F)(F)CC3)nc2c1 [Example 5, (S)—N-((4,4-Difluorocyclohexyl)(7-((4,4,4-trifluorobutanamido)methyl)imidazo[1,2-b]pyridazin-2-yl)methyl)benzamide] | 5.96 | 5.72 | – |
| Cc1ccncc1C(=O)N[C@H](c1cn2ncc([C@H](NC(=O)CCC(F)(F)F)C3CC3)cc2n1)C1CCC(F)(F)CC1 [Example 209, N—((S)-(7-((R)-Cyclopropyl(4,4,4-trifluorobutanamido)methyl)imidazo[1,2-b]pyridazin-2-yl)(4,4-difluorocyclohexyl)methyl)-4-methylnicotinamide] | 5.85 | < 4.70 | – |
| O=C(CCC(F)(F)F)N[C@@H](c1cnn2cc([C@@H](NC(=O)c3conc3C(F)(F)F)C3CCC(F)(F)CC3)nc2c1)C1CC1 [Example 101, N—[(S)-[7-[(R)-Cyclopropyl-(4,4,4-trifluorobutanoylamino)methyl]imidazo[1,2-b]pyridazin-2-yl]-(4,4-difluorocyclohexyl)methyl]-3-(trifluoromethyl)isoxazole-4-carboxamide] | 7.41 | 6.80 | – |
| CCc1cccc(C(=O)N[C@H](c2cn3ncc([C@H](NC(=O)CCC(F)(F)F)C4CC4)cc3n2)C2CCC(F)(F)CC2)n1 [Example 228, N—((S)-(7-((R)-Cyclopropyl(4,4,4-trifluorobutanamido)methyl)imidazo[1,2-b]pyridazin-2-yl)(4,4-difluorocyclohexyl)methyl)-6-ethylpicolinamide] | 6.00 | < 4.70 | – |

— patent US11702422B2, “Imidazopyridazines as modulators of IL-17” (Janssen Pharmaceutica NV, priority 2020, dated 2023)
